Assay results from ChEMBL document CHEMBL1153451, “Novel aminopeptidase N inhibitors derived from antineoplaston AS2-5 (Part I)” (Bioorg Med Chem, 2009).
Activity calls are given as the source filed them. The rule behind the calls is not given here.

How the values were obtained:
Aminopeptidase N = target: T1, Aminopeptidase N (Sus scrofa, UniProt P15145); assay: (§1) Inhibition of pig kidney microsome aminopeptidase N by UV-visible spectrophotometer
T1 sequence (P15145 whole entry): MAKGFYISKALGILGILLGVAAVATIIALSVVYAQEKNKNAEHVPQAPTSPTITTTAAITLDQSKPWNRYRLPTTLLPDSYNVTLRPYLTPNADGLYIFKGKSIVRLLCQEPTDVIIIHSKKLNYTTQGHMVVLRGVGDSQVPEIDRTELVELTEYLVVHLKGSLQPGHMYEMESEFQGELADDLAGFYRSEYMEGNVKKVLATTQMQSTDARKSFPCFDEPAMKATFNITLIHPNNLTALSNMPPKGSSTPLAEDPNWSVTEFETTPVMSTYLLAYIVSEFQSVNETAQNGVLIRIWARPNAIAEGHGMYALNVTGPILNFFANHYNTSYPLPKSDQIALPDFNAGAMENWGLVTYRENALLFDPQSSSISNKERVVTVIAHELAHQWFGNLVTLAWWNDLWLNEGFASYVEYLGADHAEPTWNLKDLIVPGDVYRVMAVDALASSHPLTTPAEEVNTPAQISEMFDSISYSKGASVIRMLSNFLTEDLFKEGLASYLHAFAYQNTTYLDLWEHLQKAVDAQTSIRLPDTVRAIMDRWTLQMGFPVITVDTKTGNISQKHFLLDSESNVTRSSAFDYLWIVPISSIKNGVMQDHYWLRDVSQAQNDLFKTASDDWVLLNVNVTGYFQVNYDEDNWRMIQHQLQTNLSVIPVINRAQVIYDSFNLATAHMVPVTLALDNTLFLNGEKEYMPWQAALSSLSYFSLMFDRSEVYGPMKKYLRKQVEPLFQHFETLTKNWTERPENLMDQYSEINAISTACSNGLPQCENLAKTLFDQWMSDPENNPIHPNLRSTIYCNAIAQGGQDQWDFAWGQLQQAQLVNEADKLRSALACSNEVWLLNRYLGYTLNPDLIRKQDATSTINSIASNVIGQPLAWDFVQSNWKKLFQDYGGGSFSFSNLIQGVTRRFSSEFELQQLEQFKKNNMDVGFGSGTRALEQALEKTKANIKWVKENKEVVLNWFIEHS

[1] = target: 72 kDa type IV collagenase (Homo sapiens, UniProt P08253); assay: Inhibition of MMP2 by spectrophotometry
[2] = target: T2, Aminopeptidase N (Sus scrofa) (UniProt P15145); assay: as §1
T2 sequence (whole entry): T1 sequence (P15145 whole entry)

| IC50 (Aminopeptidase N) [µM] | IC50 [1] [µM] | Activity [2] | Activity [1] | Structure (SMILES) |
| --- | --- | --- | --- | --- |
| 57.8 | 86.3 |  |  | COc1cc(C(=O)N[C@H](CCC(=O)O)C(=O)Nc2ccc(C(=O)O)c(O)c2)cc(OC)c1OC |
| 45.6 | 52.8 |  |  | COc1cc(C(=O)N[C@H](CCC(=O)O)C(=O)NCc2ccc(Cl)cc2F)cc(OC)c1OC |
| 40.1 | 55.3 |  |  | COc1cc(C(=O)N[C@H](CCC(=O)O)C(=O)Nc2ccc(S(=O)(=O)Nc3nccs3)cc2)cc(OC)c1OC |
| 40 | 52.3 |  |  | COc1cc(C(=O)N[C@H](CCC(=O)O)C(=O)Nc2ccc(Cl)cc2)cc(OC)c1OC |
| 104 | 660 |  |  | COc1cc(C(=O)NC2CCC(=O)N(c3ccccc3N)C2=O)cc(OC)c1OC (stereo not drawn) |
| 89.6 | 109 |  |  | COc1cc(C(=O)N[C@H](CCC(=O)O)C(=O)Nc2ccc(F)cc2F)cc(OC)c1OC |
| 80.4 | 122 |  |  | COc1cc(C(=O)N[C@H](CCC(=O)O)C(=O)Nc2cc(Cl)ccc2Cl)cc(OC)c1OC |
| 23.4 | 33.6 |  |  | COc1cc(C(=O)N[C@H](CCC(=O)O)C(=O)Nc2ccc(N)cc2)cc(OC)c1OC |
| 65.9 | 76.8 |  |  | COc1cc(C(=O)N[C@H](CCC(=O)O)C(=O)NCc2cccc(I)c2)cc(OC)c1OC |
| 72.4 | 115 |  |  | COc1cc(C(=O)N[C@H](CCC(=O)O)C(=O)NNC(=O)c2cccnc2)cc(OC)c1OC |
| 65.8 | 71.2 |  |  | COc1cc(C(=O)N[C@H](CCC(=O)O)C(=O)Nc2ccc(C(=O)O)cc2)cc(OC)c1OC |
| 78.5 | 107 |  |  | COc1cc(C(=O)N[C@H](CCC(=O)O)C(=O)Nc2ccc(F)c(Cl)c2)cc(OC)c1OC |
|  |  | inactive | inactive | COc1cc(C(=O)N[C@H](CCC(=O)O)C(=O)Nc2ccc([N+](=O)[O-])cc2)cc(OC)c1OC |
| 41.9 | 54.4 |  |  | COc1cc(C(=O)N[C@H](CCC(=O)O)C(=O)Nc2ccc(Br)cc2)cc(OC)c1OC |
| 87.7 | 169 |  |  | COc1cc(C(=O)N[C@H](CCC(=O)O)C(=O)NNC(=O)c2nccs2)cc(OC)c1OC |
| 103 | 628 |  |  | COc1cc(C(=O)N[C@H](CCC(=O)O)C(=O)Nc2ccc(S(N)(=O)=O)cc2)cc(OC)c1OC |
| 24.3 | 26.1 |  |  | COc1cc(C(=O)N[C@H](CCC(=O)O)C(=O)Nc2ccc(F)cc2)cc(OC)c1OC |
|  | 40.5 |  |  | CC(C)C[C@H](NC(=O)[C@@H](O)[C@H](N)Cc1ccccc1)C(=O)O [UBENIMEX] |
| 108 | 369 |  |  | COc1cc(C(=O)N[C@H](CCC(=O)O)C(=O)Nc2nccs2)cc(OC)c1OC |
| 177 | 287 |  |  | COc1cc(C(=O)N[C@H](CCC(=O)O)C(=O)NCc2cccc(Br)c2)cc(OC)c1OC |
| 805 | 501 |  |  | COc1cc(C(=O)N[C@H](CCC(=O)O)C(=O)NCCCl)cc(OC)c1OC |
| 51.2 | 76.1 |  |  | COc1cc(C(=O)N[C@H](CCC(=O)O)C(=O)NCc2ccc(Br)cc2F)cc(OC)c1OC |
